Bounds are passed on as bounds.

The target in this assay is SARS-COV-2 3CLpro/Mpro protease (Severe acute respiratory syndrome coronavirus 2 (2019-nCoV) (SARS-CoV-2), UniProt P0DTD1). In words: Inhibitory effect on SARS-COV-2 3CLpro/Mpro protease by fluorescence resonance energy transfer. To be noted: activity intervals A-D, read-out: IC50 (nM), Inhibition on SARS-CoV-2 3CLpro/Mpro protease. It counts as biochemical.
Turning to `O=C(c1cc(Br)cc([N+](=O)[O-])c1N[C@@H]1CCCN(C(=O)C2CNCC(F)(F)C2)C1)N1CCOC(F)(F)C1` (stereo in doubt) [Example 327], the IC50 is 10 to 50 nM.

For `C[C@@H]1CN(C(=O)c2cc(Br)cc([N+](=O)[O-])c2N[C@@H]2CCOC[C@@H]2NC(=O)c2cncc3ccccc23)C[C@H](C)O1` [Example 152], the IC50 was in the range of 10 to 50 nM. `CNc1cncc(C(=O)N2CCC[C@@H](Nc3c(C(=O)N4CCN(CCOC)[C@@H](C)C4)cc(Br)cc3[N+](=O)[O-])C2)c1` [Example 247]: the IC50 lay within 10 to 50 nM. Regarding `Cc1cc(C(=O)N2CCC[C@@H](Nc3c(C(=O)N4CCN(CC(F)(F)F)CC4)cc(Br)cc3[N+](=O)[O-])C2)cc(=O)[nH]1` [Example 146], the IC50 was 10 to 50 nM. For the molecule `CNc1cncc(C(=O)N2CCC[C@@H](Nc3c(C(=O)N4CCOC5CC54)cc(Br)cc3[N+](=O)[O-])C2)c1` (stereo partly shown) [Example 294], the IC50 was in the range of 10 to 50 nM. As to `CNc1cncc(C(=O)N2C[C@H](Nc3c(C(=O)N4C[C@@H](C)O[C@@H](C)C4)cc(Br)cc3[N+](=O)[O-])C[C@H]2C(=O)Nc2nn(C3C[C@@H](C)O[C@@H](C)C3)cc2Br)c1` (stereo partly shown) [Example 438], the IC50 lay in the range of 10 to 50 nM. `CNc1cncc(C(=O)N2CCC[C@@H](Nc3c(C(=O)N4CCC5(CCNCC5)CC4)cc(Br)cc3[N+](=O)[O-])C2)c1` [Example 272]: the IC50 fell in the range of 10 to 50 nM.

`CNc1cncc(C(=O)N2C[C@H](Nc3c(C(=O)N4C[C@@H](C)O[C@@H](C)C4)cc(Br)cc3[N+](=O)[O-])C[C@H]2C#Cc2cnoc2)c1` [Example 400]: the IC50 lay in the range of 100 to 200 nM.

In the case of `O=C(c1cc(Br)cc(C(F)(F)F)c1N[C@@H]1CCN(C(=O)c2cncc3ccccc23)C1)N1CCCCC1` [Example 48], the IC50 was 10 to 50 nM. Regarding `CNc1cncc(C(=O)N[C@H]2CCCC[C@H]2Nc2c(C(=O)N3CCN(CCOC)CC3)cc(Br)cc2[N+](=O)[O-])c1` [Example 222], the IC50 fell in the range of 10 to 50 nM. Take `CNc1cncc(C(=O)N2CC(Nc3c(C(=O)N4C[C@H](C)C[C@H](C)C4)cc(Br)cc3[N+](=O)[O-])C(F)(F)C2)c1` (stereo partly shown) [Example 100]: the IC50 fell in the range of 10 to 50 nM.

As for `[2H]C([2H])([2H])Nc1cncc(C(=O)N2C[C@H](Nc3c(C(=O)N4C[C@@H](C)O[C@@H](C)C4)cc(Br)cc3[N+](=O)[O-])[C@@H](OC([2H])([2H])[2H])C2)c1` [Example 451], the IC50 lay within 10 to 50 nM.

Take `CNc1cncc(C(=O)N2C[C@H](Nc3c(C(=O)N4C[C@@H](C)O[C@H](C)C4)cc(Br)cc3[N+](=O)[O-])C(C)(C)C2)c1` [Example 187]: the IC50 lay in the range of 10 to 50 nM. In the case of `CNc1cncc(C(=O)N2C[C@H](Nc3c(C(=O)N4C[C@@H](C)O[C@@H](C)C4)cc(Br)cc3[N+](=O)[O-])C[C@H]2C(=O)Nc2ccnc(Cl)n2)c1` [Example 442, (2S,4R)-4-((4-bromo-2-((2R,6S)-2,6-dimethylmorpholin-4-carbonyl)-6-nitrophenyl)amino)-N-(2-chloropyrimidin-4-yl)-1-(5-(methylamino)nicotinoyl) pyrrolidine-2-formamide], the IC50 lay within 10 to 50 nM. The result for `CNc1cncc(C(=O)N2CCC[C@@H](Nc3c(C(=O)N4CCn5ccnc5C4)cc(Br)cc3[N+](=O)[O-])C2)c1` [Example 352] reads 10 to 50 nM. On to `CNc1cncc(C(=O)N2C[C@H](Nc3c(C(=O)N4C[C@@H](C)O[C@@H](C)C4)cc(Br)cc3[N+](=O)[O-])C[C@H]2C(=O)N[C@H]2CC[C@@H](OC)C2)c1` [Example 434, (2S,4R)-4-((4-bromo-2-((2R,6S)-2,6-dimethylmorpholin-4-carbonyl)-6-nitrophenyl)amino)-N-((1S,3R)-3-methoxycyclopentyl)-1-(5-(methylamino)nicotinoyl) pyrrolidine-2-formamide], for which the IC50 lay within 100 to 200 nM.

In the case of `CNc1cncc(C(=O)N2C[C@H](Nc3c(C(=O)N4CCN(CCOC)CC4)cc(Br)cc3[N+](=O)[O-])C3(CC3)C2)c1` [Example 153], the IC50 lay in the range of 10 to 50 nM. The result for `CNc1cncc(C(=O)N[C@H]2CCCC[C@H]2Nc2c(C(=O)N3CCO[C@@H](C)C3)cc(Br)cc2[N+](=O)[O-])c1` [Example 231] reads 10 to 50 nM; that for `COCCN1CCN(C(=O)c2cc(Br)cc([N+](=O)[O-])c2N[C@@H]2CCCC[C@@H]2NC(=O)c2cncc3cc(Cl)ccc23)CC1` [Example 111], < 10 nM.

For the molecule `CNc1cncc(C(=O)N2CCC[C@@H](Nc3c(C(=O)N4C[C@@H](C)N(CCOC)[C@@H](C)C4)cc(Br)cc3[N+](=O)[O-])C2)c1` [Example 233], the IC50 lay in the range of 50 to 100 nM. Then `O=C(c1cc(Br)cc([N+](=O)[O-])c1N[C@@H]1CCCN(C(=O)c2cncc3ccccc23)C1)N1CCOCC1` [Example 38], with < 10 nM; and `Cc1cc(C(=O)N2CCC[C@@H](Nc3c(C(=O)N4CC(O)CC(Cl)C4)cc(Br)cc3[N+](=O)[O-])C2)cc(=O)[nH]1` (stereo partly shown) [Example 159], with < 10 nM. On to `O=C(c1cncc(C2CC2)c1)N1CCC[C@@H](Nc2c(C(=O)N3CCCCC3)cc(Br)cc2[N+](=O)[O-])C1` [Example 45], for which the IC50 was 10 to 50 nM. Take `CNc1cncc(C(=O)N2C[C@H](Nc3c(C(=O)N4CCCCC4)cc(Br)cc3[N+](=O)[O-])C(F)(F)C2)c1` [Example 81]: the IC50 lay in the range of 10 to 50 nM. Turning to `C=C1CNCC(C(=O)N2CCC[C@@H](Nc3c(C(=O)N4CCCCC4)cc(Br)cc3[N+](=O)[O-])C2)C1` (stereo partly shown) [Example 324], the IC50 was in the range of 100 to 200 nM. Then `O=C(c1cc(Br)cc([N+](=O)[O-])c1N[C@@H]1CCCN(C(=O)c2cnnc3ccccc23)C1)N1CCCCC1` [Example 56], with 10 to 50 nM.

In the case of `O=C(c1cc(Br)cc([N+](=O)[O-])c1N[C@@H]1CCCN(C(=O)c2cncc3[nH]ccc23)C1)N1CCC(F)(F)CC1` [Example 28], the IC50 is 10 to 50 nM.

Regarding `CNc1cncc(C(=O)N2C[C@H](Nc3c(C(=O)N4C[C@@H](C)O[C@@H](C)C4)cc(Br)cc3[N+](=O)[O-])C[C@H]2C(=O)NCc2ccnc(NC)c2)c1` [Example 430], the IC50 fell in the range of 100 to 200 nM. `CNc1cncc(C(=O)N2C[C@H](Nc3c(C(=O)N4C[C@@H](C)O[C@@H](C)C4)cc(Br)cc3[N+](=O)[O-])C[C@H]2C(=O)Nc2cc3nn(C)cc3cc2Cl)c1` [Example 429]: the IC50 lay within 100 to 200 nM. For the molecule `O=C(c1cc(Br)cc([N+](=O)[O-])c1N[C@@H]1CCCN(C(=O)C2CNCC(F)(F)C2)C1)N1CCCCC1` (stereo partly shown) [Example 296], the IC50 was 10 to 50 nM. `O=C(c1cc(Br)cc([N+](=O)[O-])c1N[C@@H]1CCCN(C(=O)c2cncc3ccccc23)C1)N1CC2CC2C1` (stereo partly drawn) [Example 15, ((3R)-3-((2-(3-azabicyclo[3.1.0]hexan-3-carbonyl)-4-bromo-6-nitrophenyl)amino)piperidin-1-yl)(isoquinolin-4-yl)methanone]: the IC50 was 10 to 50 nM. In the case of `O=C(N[C@H]1CCCC[C@H]1Nc1c(C(=O)N2CCN(CCO)CC2)cc(Br)cc1[N+](=O)[O-])c1cncc2cc(Cl)ccc12` [Example 118], the IC50 was in the range of 10 to 50 nM. Take `[2H]C([2H])([2H])Nc1cncc(C(=O)N2CCC[C@@H](Nc3c(C(=O)N4C[C@@H](C)O[C@@H](C)C4)cc(Br)cc3[N+](=O)[O-])C2)c1` [Example 347]: the IC50 is 10 to 50 nM. Consider `CNc1cncc(C(=O)N2C[C@H](Nc3c(C(=O)N4C[C@@H](C)N[C@@H](C)C4)cc(Br)cc3[N+](=O)[O-])C3(CC3)C2)c1` [Example 21], for which the IC50 was 10 to 50 nM.
